In PubChem BioAssay (NCI):
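These data come from cells grown in 96-well plates and exposed to compound for 48 hours at five concentrations. At the GI50, growth is halved. TGI denotes the concentration required for complete inhibition of growth.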

Tests used:
Assay in all cases: NCI tumour cell line growth inhibition, 48 h
786-0 renal = system: 786-0 renal
A498 renal = system: A498 renal
A549 NSCLC = system: A549 NSCLC
ACHN renal = system: ACHN renal
BT-549 breast = system: BT-549 breast
CAKI-1 renal = system: CAKI-1 renal
CCRF-CEM leukemia = system: CCRF-CEM leukemia
DU-145 prostate = system: DU-145 prostate
EKVX NSCLC = system: EKVX NSCLC
HCT-116 colon = system: HCT-116 colon
HCT-15 colon = system: HCT-15 colon
HOP-62 NSCLC = system: HOP-62 NSCLC
HOP-92 NSCLC = system: HOP-92 NSCLC
HS 578T breast = system: HS 578T breast
HT29 colon = system: HT29 colon
IGROV1 ovarian = system: IGROV1 ovarian
K-562 leukemia = system: K-562 leukemia
KM12 colon = system: KM12 colon
LOX IMVI melanoma = system: LOX IMVI melanoma
M14 melanoma = system: M14 melanoma
MALME-3M melanoma = system: MALME-3M melanoma
MDA-MB-231 breast = system: MDA-MB-231 breast
MDA-MB-435 = system: MDA-MB-435
MOLT-4 leukemia = system: MOLT-4 leukemia
NCI-H226 lung = system: NCI-H226 lung
NCI-H23 lung = system: NCI-H23 lung
NCI-H460 lung = system: NCI-H460 lung
NCI-H522 lung = system: NCI-H522 lung
NCI/ADR-RES ovarian = system: NCI/ADR-RES ovarian
OVCAR-3 ovarian = system: OVCAR-3 ovarian
OVCAR-4 ovarian = system: OVCAR-4 ovarian
OVCAR-5 ovarian = system: OVCAR-5 ovarian
OVCAR-8 ovarian = system: OVCAR-8 ovarian
PC-3 prostate = system: PC-3 prostate
RXF 393 renal = system: RXF 393 renal
SF-268 CNS = system: SF-268 CNS
SF-295 CNS = system: SF-295 CNS
SK-MEL-2 melanoma = system: SK-MEL-2 melanoma
SK-MEL-28 melanoma = system: SK-MEL-28 melanoma
SK-MEL-5 melanoma = system: SK-MEL-5 melanoma
SN12C renal = system: SN12C renal
SNB-19 CNS = system: SNB-19 CNS
SNB-75 CNS = system: SNB-75 CNS
SR leukemia = system: SR leukemia
SW-620 colon = system: SW-620 colon
T-47D breast = system: T-47D breast
TK-10 renal = system: TK-10 renal
U251 CNS = system: U251 CNS
UACC-62 melanoma = system: UACC-62 melanoma
UO-31 renal = system: UO-31 renal
HCC-2998 colon = system: HCC-2998 colon
HL-60(TB) leukemia = system: HL-60(TB) leukemia
MCF7 breast = system: MCF7 breast
RPMI-8226 leukemia = system: RPMI-8226 leukemia
SF-539 CNS = system: SF-539 CNS
SK-OV-3 ovarian = system: SK-OV-3 ovarian
UACC-257 melanoma = system: UACC-257 melanoma

CC(C)C1=CC23CCC4C(C)(C(=O)O)CCCC4(C)C2CC1C(C(=O)O)C3C(=O)O (stereo unspecified)
TGI (786-0 renal): > 100 µM
TGI (A498 renal): > 100 µM
TGI (A549 NSCLC): > 100 µM
TGI (ACHN renal): > 100 µM
TGI (BT-549 breast): > 100 µM
TGI (CAKI-1 renal): > 100 µM
TGI (CCRF-CEM leukemia): > 100 µM
TGI (DU-145 prostate): > 100 µM
TGI (EKVX NSCLC): > 100 µM
TGI (HCT-116 colon): > 100 µM
TGI (HCT-15 colon): > 100 µM
TGI (HOP-62 NSCLC): > 100 µM
TGI (HOP-92 NSCLC): > 100 µM
TGI (HS 578T breast): > 100 µM
TGI (HT29 colon): > 100 µM
TGI (IGROV1 ovarian): > 100 µM
TGI (K-562 leukemia): > 100 µM
TGI (KM12 colon): > 100 µM
TGI (LOX IMVI melanoma): > 100 µM
TGI (M14 melanoma): > 100 µM
TGI (MALME-3M melanoma): > 100 µM
TGI (MDA-MB-231 breast): > 100 µM
TGI (MDA-MB-435): > 100 µM
TGI (MOLT-4 leukemia): > 100 µM
TGI (NCI-H226 lung): > 100 µM
TGI (NCI-H23 lung): > 100 µM
TGI (NCI-H460 lung): > 100 µM
TGI (NCI-H522 lung): > 100 µM
TGI (NCI/ADR-RES ovarian): > 100 µM
TGI (OVCAR-3 ovarian): > 100 µM
TGI (OVCAR-4 ovarian): > 100 µM
TGI (OVCAR-5 ovarian): > 100 µM
TGI (OVCAR-8 ovarian): > 100 µM
TGI (PC-3 prostate): > 100 µM
TGI (RXF 393 renal): > 100 µM
TGI (SF-268 CNS): > 100 µM
TGI (SF-295 CNS): > 100 µM
TGI (SK-MEL-2 melanoma): > 100 µM
TGI (SK-MEL-28 melanoma): > 100 µM
TGI (SK-MEL-5 melanoma): > 100 µM
TGI (SN12C renal): > 100 µM
TGI (SNB-19 CNS): > 100 µM
TGI (SNB-75 CNS): > 100 µM
TGI (SR leukemia): > 100 µM
TGI (SW-620 colon): > 100 µM
TGI (T-47D breast): > 100 µM
TGI (TK-10 renal): > 100 µM
TGI (U251 CNS): > 100 µM
TGI (UACC-62 melanoma): > 100 µM
TGI (UO-31 renal): > 100 µM

COc1ccc2[nH]cc(-c3nc(-c4c[nH]c5ccncc45)cs3)c2c1
GI50 (786-0 renal): 1.84 µM
TGI (786-0 renal): 3.41 µM
GI50 (A498 renal): 4.91 µM
TGI (A498 renal): 16.1 µM
GI50 (A549 NSCLC): 2.35 µM
TGI (A549 NSCLC): 9.5 µM
GI50 (ACHN renal): 1.66 µM
TGI (ACHN renal): 3.14 µM
GI50 (BT-549 breast): 8.96 µM
TGI (BT-549 breast): 21.3 µM
GI50 (CAKI-1 renal): 2.86 µM
TGI (CAKI-1 renal): 9.13 µM
GI50 (CCRF-CEM leukemia): 2.45 µM
TGI (CCRF-CEM leukemia): 7.18 µM
GI50 (DU-145 prostate): 2.73 µM
TGI (DU-145 prostate): 8.57 µM
GI50 (EKVX NSCLC): 1.99 µM
TGI (EKVX NSCLC): 4.88 µM
GI50 (HCC-2998 colon): 1.87 µM
TGI (HCC-2998 colon): 3.32 µM
GI50 (HCT-116 colon): 1.77 µM
TGI (HCT-116 colon): 3.33 µM
GI50 (HCT-15 colon): 1.95 µM
TGI (HCT-15 colon): 4.29 µM
GI50 (HL-60(TB) leukemia): 1.51 µM
TGI (HL-60(TB) leukemia): 3.47 µM
GI50 (HOP-62 NSCLC): 2.08 µM
TGI (HOP-62 NSCLC): 4.77 µM
GI50 (HOP-92 NSCLC): 1.79 µM
TGI (HOP-92 NSCLC): 3.75 µM
GI50 (HS 578T breast): 2.15 µM
TGI (HS 578T breast): 4.95 µM
GI50 (HT29 colon): 2.23 µM
TGI (HT29 colon): 4.87 µM
GI50 (IGROV1 ovarian): 1.93 µM
TGI (IGROV1 ovarian): 3.9 µM
GI50 (K-562 leukemia): 1.72 µM
TGI (K-562 leukemia): 4.7 µM
GI50 (KM12 colon): 1.76 µM
TGI (KM12 colon): 3.75 µM
GI50 (M14 melanoma): 1.83 µM
TGI (M14 melanoma): 3.62 µM
GI50 (MALME-3M melanoma): 2 µM
TGI (MALME-3M melanoma): 3.58 µM
GI50 (MCF7 breast): 1.66 µM
TGI (MCF7 breast): 3.4 µM
GI50 (MDA-MB-231 breast): 1.65 µM
TGI (MDA-MB-231 breast): 3.25 µM
GI50 (MDA-MB-435): 1.68 µM
TGI (MDA-MB-435): 3.13 µM
GI50 (NCI-H226 lung): 2.36 µM
TGI (NCI-H226 lung): 6.58 µM
GI50 (NCI-H23 lung): 1.76 µM
TGI (NCI-H23 lung): 3.85 µM
GI50 (NCI-H460 lung): 1.84 µM
TGI (NCI-H460 lung): 3.73 µM
GI50 (NCI-H522 lung): 1.81 µM
TGI (NCI-H522 lung): 3.65 µM
GI50 (NCI/ADR-RES ovarian): 2.48 µM
TGI (NCI/ADR-RES ovarian): 6.84 µM
GI50 (OVCAR-3 ovarian): 2.18 µM
TGI (OVCAR-3 ovarian): 4.07 µM
GI50 (OVCAR-4 ovarian): 2.94 µM
TGI (OVCAR-4 ovarian): 8.85 µM
GI50 (OVCAR-5 ovarian): 2.37 µM
TGI (OVCAR-5 ovarian): 4.74 µM
GI50 (OVCAR-8 ovarian): 2.37 µM
TGI (OVCAR-8 ovarian): 6.05 µM
GI50 (PC-3 prostate): 2.13 µM
TGI (PC-3 prostate): 5.23 µM
GI50 (RPMI-8226 leukemia): 2.08 µM
TGI (RPMI-8226 leukemia): 4.76 µM
GI50 (RXF 393 renal): 1.74 µM
TGI (RXF 393 renal): 3.33 µM
GI50 (SF-268 CNS): 2.61 µM
TGI (SF-268 CNS): 6.97 µM
GI50 (SF-295 CNS): 1.7 µM
TGI (SF-295 CNS): 3.19 µM
GI50 (SF-539 CNS): 1.64 µM
TGI (SF-539 CNS): 3.09 µM
GI50 (SK-MEL-2 melanoma): 2.05 µM
TGI (SK-MEL-2 melanoma): 3.91 µM
GI50 (SK-MEL-28 melanoma): 1.94 µM
TGI (SK-MEL-28 melanoma): 3.44 µM
GI50 (SK-MEL-5 melanoma): 1.65 µM
TGI (SK-MEL-5 melanoma): 3.05 µM
GI50 (SK-OV-3 ovarian): 13.7 µM
TGI (SK-OV-3 ovarian): 26.6 µM
GI50 (SN12C renal): 1.83 µM
TGI (SN12C renal): 3.61 µM
GI50 (SNB-19 CNS): 1.97 µM
TGI (SNB-19 CNS): 3.8 µM
GI50 (SNB-75 CNS): 6.96 µM
TGI (SNB-75 CNS): 20.1 µM
GI50 (SW-620 colon): 1.93 µM
TGI (SW-620 colon): 3.84 µM
GI50 (TK-10 renal): 2.59 µM
TGI (TK-10 renal): 4.64 µM
GI50 (U251 CNS): 1.91 µM
TGI (U251 CNS): 3.67 µM
GI50 (UACC-257 melanoma): 1.93 µM
TGI (UACC-257 melanoma): 3.51 µM
GI50 (UACC-62 melanoma): 1.78 µM
TGI (UACC-62 melanoma): 3.35 µM
GI50 (UO-31 renal): 1.75 µM
TGI (UO-31 renal): 3.46 µM
